# Experimental data from US11040035B2, “3-oxo-2,6-diphenyl-2,3-dihydropyridazine-4-carboxamides” (BAYER PHARMA AKTIENGESELLSCHAFT, priority 2016, dated 2021).
# Columns and labels:
# AHR [1] = target: T1, AHR (Homo sapiens, UniProt P35869); assay: In vitro assay 2: agonism in human cell line (transactivation assay)
# T1 sequence (P35869 11-848): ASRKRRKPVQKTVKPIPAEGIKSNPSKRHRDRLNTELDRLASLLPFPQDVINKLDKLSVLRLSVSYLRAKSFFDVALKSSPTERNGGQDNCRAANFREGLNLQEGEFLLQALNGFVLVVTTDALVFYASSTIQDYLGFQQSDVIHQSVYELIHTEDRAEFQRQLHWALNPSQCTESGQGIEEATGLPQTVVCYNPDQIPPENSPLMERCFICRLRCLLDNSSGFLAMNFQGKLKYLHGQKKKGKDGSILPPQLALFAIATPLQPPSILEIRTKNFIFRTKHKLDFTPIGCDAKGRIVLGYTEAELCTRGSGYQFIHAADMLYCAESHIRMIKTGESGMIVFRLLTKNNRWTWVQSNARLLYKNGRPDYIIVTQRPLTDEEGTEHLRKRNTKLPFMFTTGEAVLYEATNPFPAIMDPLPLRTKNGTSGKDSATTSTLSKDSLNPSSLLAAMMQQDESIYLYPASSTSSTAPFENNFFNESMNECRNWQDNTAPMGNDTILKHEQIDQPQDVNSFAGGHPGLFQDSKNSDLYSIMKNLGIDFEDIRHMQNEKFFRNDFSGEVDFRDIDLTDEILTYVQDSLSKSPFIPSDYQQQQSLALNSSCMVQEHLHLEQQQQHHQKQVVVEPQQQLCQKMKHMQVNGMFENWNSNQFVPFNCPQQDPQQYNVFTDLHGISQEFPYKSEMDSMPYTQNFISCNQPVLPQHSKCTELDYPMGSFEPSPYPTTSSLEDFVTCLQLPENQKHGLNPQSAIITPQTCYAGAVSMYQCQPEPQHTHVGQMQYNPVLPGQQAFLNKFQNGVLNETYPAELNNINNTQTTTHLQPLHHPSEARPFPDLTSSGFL
# AHR [2] = target: T1, AHR; assay: In vitro assay 1: antagonism in human cell line (transactivation assay, kynurenic acid prestimulated)
# [3] = read-out: Assay 2: AHR-luc Hum Agonism IC50, no kynurenic acid, 20 hours, firefly luciferase
# [4] = Assay 2: AHR-luc Hum Agonism IC50 [M], no kynurenic acid, 20 hours, firefly luciferase
# [5] = Assay 1: AHR-luc Hum Antagonism IC50 [M], 150 μM kynurenic acid, 20 hours, firefly luciferase
Compound,IC50 (AHR [1]; [3]),"IC50 (AHR [2]; read-out: Assay 1: AHR-luc Hum Antagonism IC50, 150 μM kynurenic acid, 20 hours, firefly luciferase)",IC50 (AHR [1]; [4]),IC50 (AHR [2]; [5])
"2-(3-Fluorophenyl)-N-{(2-hydroxy-1-[tetrahydrofuran-3-yl]ethyl}-6-(4-methoxyphenyl)-3-oxo-2,3-dihydropyridazine-4-carboxamide [Example 158]",> 2e-05 M,2.75e-07 M,–,–
"CC(NC(=O)c1cc(-c2ccc(Cl)cc2)nn(-c2cccc(F)c2)c1=O)C(O)C(F)(F)F (mixture of isomers) [Example 217, Isomeric mixture no. 1 of 6-(4-chlorophenyl)-2-(3-fluorophenyl)-3-oxo-N-(4,4,4-trifluoro-3-hydroxybutan-2-yl)-2,3-dihydropyridazine-4-carboxamide]",–,–,> 2e-05 M,–
"O=C(NCC(O)C1CC1)c1cc(-c2ccc(Cl)cc2)nn(-c2cccc(F)c2)c1=O (racemic) [Example 190, 6-(4-Chlorophenyl)-N-[(2RS)-2-cyclopropyl-2-hydroxyethyl]-2-(3-fluorophenyl)-3-oxo-2,3-dihydropyridazine-4-carboxamide]",–,–,> 2e-05 M,2.77e-07 M
"O=C(NC(CO)C1CC1)c1cc(-c2ccc(Cl)cc2)nn(-c2cccc(F)c2)c1=O (racemic) [Example 193, 6-(4-Chlorophenyl)-N-[(1RS)-1-cyclopropyl-2-hydroxyethyl]-2-(3-fluorophenyl)-3-oxo-2,3-dihydropyridazine-4-carboxamide]",–,–,> 2e-05 M,2.52e-08 M
"CC(CO)CNC(=O)c1cc(-c2ccc(Cl)cc2)nn(-c2cccc(F)c2)c1=O (racemic) [Example 200, 6-(4-Chlorophenyl)-2-(3-fluorophenyl)-N-[(2RS)-3-hydroxy-2-methylpropyl]-3-oxo-2,3-dihydropyridazine-4-carboxamide]",–,–,> 2e-05 M,7.5e-08 M
"CC(O)CCNC(=O)c1cc(-c2ccc(Cl)cc2)nn(-c2cccc(F)c2)c1=O (racemic) [Example 203, 6-(4-Chlorophenyl)-2-(3-fluorophenyl)-N-[(3RS)-3-hydroxybutyl]-3-oxo-2,3-dihydropyridazine-4-carboxamide]",–,–,> 2e-05 M,2.13e-07 M
"CC(CCO)NC(=O)c1cc(-c2ccc(Cl)cc2)nn(-c2cccc(F)c2)c1=O (racemic) [Example 206, 6-(4-Chlorophenyl)-2-(3-fluorophenyl)-N-[(2RS)-4-hydroxybutan-2-yl]-3-oxo-2,3-dihydropyridazine-4-carboxamide]",–,–,> 2e-05 M,6.25e-08 M
"CC(NC(=O)c1cc(-c2ccc(Cl)cc2)nn(-c2cccc(F)c2)c1=O)C(O)C(F)(F)F (racemic) [Example 216, 6-(4-Chlorophenyl)-2-(3-fluorophenyl)-3-oxo-N-[(2RS,3RS)-4,4,4-trifluoro-3-hydroxybutan-2-yl]-2,3-dihydropyridazine-4-carboxamide and 6-(4-Chlorophenyl)-2-(3-fluorophenyl)-3-oxo-N-[(2RS,3SR)-4,4,4-trifluoro-3-hydroxybutan-2-yl]-2,3-dihydropyridazine-4-carboxamide]",–,–,> 2e-05 M,1.16e-07 M
"O=C(NCC(O)C(F)F)c1cc(-c2ccc(Cl)cc2)nn(-c2cccc(F)c2)c1=O (racemic) [Example 221, 6-(4-Chlorophenyl)-N-[(2RS)-3,3-difluoro-2-hydroxypropyl]-2-(3-fluorophenyl)-3-oxo-2,3-dihydropyridazine-4-carboxamide]",–,–,> 2e-05 M,7.64e-08 M
"O=C(NC(CO)CCO)c1cc(-c2ccc(Cl)cc2)nn(-c2cccc(F)c2)c1=O (racemic) [Example 224, 6-(4-Chlorophenyl)-N-[(2RS)-1,4-dihydroxybutan-2-yl]-2-(3-fluorophenyl)-3-oxo-2,3-dihydropyridazine-4-carboxamide]",–,–,> 2e-05 M,2.79e-07 M
"COCCC(CO)NC(=O)c1cc(-c2ccc(Cl)cc2)nn(-c2cccc(F)c2)c1=O (racemic) [Example 227, 6-(4-Chlorophenyl)-2-(3-fluorophenyl)-N-[(2RS)-1-hydroxy-4-methoxybutan-2-yl]-3-oxo-2,3-dihydropyridazine-4-carboxamide]",–,–,> 2e-05 M,3.57e-07 M
"O=C(NC(CO)C1CCCO1)c1cc(-c2ccc(Cl)cc2)nn(-c2cccc(F)c2)c1=O (racemic) [Example 230, 3,6-Anhydro-2-({[6-(4-chlorophenyl)-2-(3-fluorophenyl)-3-oxo-2,3-dihydropyridazin-4-yl]carbonyl}amino)-2,4,5-trideoxy-DL-erythro-hexitol and 1,4-anhydro-5-({[6-(4-chlorophenyl)-2-(3-fluorophenyl)-3-oxo-2,3-dihydropyridazin-4-yl]carbonyl}amino)-2,3,5-trideoxy-DL-threo-hexitol]",–,–,> 2e-05 M,1.37e-07 M
"O=C(NCC(O)C1CCCC1)c1cc(-c2ccc(Cl)cc2)nn(-c2cccc(F)c2)c1=O (racemic) [Example 232, 6-(4-Chlorophenyl)-N-[(2RS)-2-cyclopentyl-2-hydroxyethyl]-2-(3-fluorophenyl)-3-oxo-2,3-dihydropyridazine-4-carboxamide]",–,–,> 2e-05 M,1.19e-07 M
"CCC(CC)C(O)CNC(=O)c1cc(-c2ccc(Cl)cc2)nn(-c2cccc(F)c2)c1=O (racemic) [Example 233, 6-(4-Chlorophenyl)-N-[(2RS)-3-ethyl-2-hydroxypentyl]-2-(3-fluorophenyl)-3-oxo-2,3-dihydropyridazine-4-carboxamide]",–,–,> 2e-05 M,1.72e-07 M
"CN(C)CC(O)CNC(=O)c1cc(-c2ccc(Cl)cc2)nn(-c2cccc(F)c2)c1=O (racemic) [Example 235, 6-(4-Chlorophenyl)-N-[(2RS)-3-(dimethylamino)-2-hydroxypropyl]-2-(3-fluorophenyl)-3-oxo-2,3-dihydropyridazine-4-carboxamide]",–,–,> 2e-05 M,3e-06 M
"CC(O)C(NC(=O)c1cc(-c2ccc(C(F)(F)F)cc2)nn(-c2cccc(F)c2)c1=O)C(F)(F)F (racemic) [Example 260, 2-(3-Fluorophenyl)-3-oxo-N-[(2RS,3RS)-1,1,1-trifluoro-3-hydroxybutan-2-yl]-6-[4-(trifluoromethyl)phenyl]-2,3-dihydropyridazine-4-carboxamide or 2-(3-fluorophenyl)-3-oxo-N-[(2SR,3RS)-1,1,1-trifluoro-3-hydroxybutan-2-yl]-6-[4-(trifluoromethyl)phenyl]-2,3-dihydropyridazine-4-carboxamide]",–,–,> 2e-05 M,–
"O=C(NC(CO)C(F)(F)F)c1cc(-c2ccc(C(F)(F)F)cc2)nn(-c2cccc(F)c2)c1=O (racemic) [Example 266, 2-(3-Fluorophenyl)-3-oxo-N-[(2RS)-1,1,1-trifluoro-3-hydroxypropan-2-yl]-6-[4-(trifluoromethyl)phenyl]-2,3-dihydropyridazine-4-carboxamide]",–,–,7.84e-07 M,–
"CC(C)(O)C(NC(=O)c1cc(-c2ccc(C(F)(F)F)cc2)nn(-c2cccc(F)c2)c1=O)C(F)(F)F (single isomer, unassigned; (+)) [Example 395, (+)-2-(3-fluorophenyl)-3-oxo-N-(1,1,1-trifluoro-3-hydroxy-3-methylbutan-2-yl)-6-[4-(trifluoromethyl)phenyl]-2,3-dihydropyridazine-4-carboxamide]",> 2e-05 M,–,–,–
"Cc1ccc(-c2cc(C(=O)N[C@H](C)CO)c(=O)n(-c3cccc(F)c3)n2)cc1C [Example 90, 6-(3,4-dimethylphenyl)-2-(3-fluorophenyl)-N-[(2R)-1-hydroxypropan-2-yl]-3-oxo-2,3-dihydropyridazine-4-carboxamide]",–,–,–,6.75e-07 M
"O=C(N[C@@H]1CCC[C@@H]1O)c1cc(-c2ccc(Cl)cc2)nn(-c2cccc(F)c2)c1=O [Example 133, 6-(4-Chlorophenyl)-2-(3-fluorophenyl)-N-[(1R,2S)-2-hydroxycyclopentyl]-3-oxo-2,3-dihydropyridazine-4-carboxamide]",–,–,> 2e-05 M,–
"CC(C)[C@@H](CO)NC(=O)c1cc(-c2ccc(C(F)(F)F)cc2)nn(-c2cccc(F)c2)c1=O [Example 239, 2-(3-Fluorophenyl)-N-[(2S)-1-hydroxy-3-methylbutan-2-yl]-3-oxo-6-[4-(trifluoromethyl)phenyl]-2,3-dihydropyridazine-4-carboxamide]",–,–,> 2e-05 M,–
"CC(C)[C@H](CO)NC(=O)c1cc(-c2ccc(C(F)(F)F)cc2)nn(-c2cccc(F)c2)c1=O [Example 240, 2-(3-Fluorophenyl)-N-[(2R)-1-hydroxy-3-methylbutan-2-yl]-3-oxo-6-[4-(trifluoromethyl)phenyl]-2,3-dihydropyridazine-4-carboxamide]",–,–,6.56e-08 M,–
